This is an account of results in patent US20080261984A1, “Use of S,S-Reboxetine in the Treatment of Pain” (Pfizer Inc., priority 2004, published 2008).

The test system of one test is anticholinergic binding. The following applies: different animal models; cited from earlier work.
For test [1] the following is noted: in vivo; cited from earlier work.
The next test concerns monoamine oxidase (MAO). The following applies: cited from earlier work.
For a further test, the target named is dopamine reuptake (Homo sapiens, UniProt Q01959). The following applies: cited from earlier work.
Sequence of dopamine reuptake (Q01959 whole entry): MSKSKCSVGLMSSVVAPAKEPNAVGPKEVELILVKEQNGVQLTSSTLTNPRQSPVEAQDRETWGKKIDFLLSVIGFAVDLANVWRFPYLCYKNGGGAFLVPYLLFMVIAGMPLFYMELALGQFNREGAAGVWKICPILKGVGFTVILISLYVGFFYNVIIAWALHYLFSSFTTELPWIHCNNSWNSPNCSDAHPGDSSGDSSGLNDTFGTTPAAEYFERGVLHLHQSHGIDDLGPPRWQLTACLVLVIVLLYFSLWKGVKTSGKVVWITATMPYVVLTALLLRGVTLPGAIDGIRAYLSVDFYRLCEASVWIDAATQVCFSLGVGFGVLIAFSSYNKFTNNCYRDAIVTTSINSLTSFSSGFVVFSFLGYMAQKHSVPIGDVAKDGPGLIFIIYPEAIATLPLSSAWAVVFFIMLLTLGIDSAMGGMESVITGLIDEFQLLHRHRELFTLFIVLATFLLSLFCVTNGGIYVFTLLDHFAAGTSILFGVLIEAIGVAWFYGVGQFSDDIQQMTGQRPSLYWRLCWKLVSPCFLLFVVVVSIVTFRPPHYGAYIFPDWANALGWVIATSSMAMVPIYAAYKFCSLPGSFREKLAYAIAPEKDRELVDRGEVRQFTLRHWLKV
Test [2] in a line: treatment of pain in patients who do not respond to alpha-2-delta ligands such as gabapentin (PHN study). The following applies: human, in vivo. As to the method: The following study is carried out to assess the efficacy of (S,S)-reboxetine in the treatment of patients with post-herpetic neuralgia (PHN) who fail to respond to gabapentin (GBP) treatment.
Study Population Male or female patients aged 18 years or older, with pain present more than 3 months after healing of the Herpes Zoster skin rash and who are also GBP treatment failures. No upper limit on the duration of PHN is imposed. GBP failures are defined as either: […]
Those patients who show no or minimal improvement on the Patient Global Impression of Change (PGIC) after treatment with GBP (1800 mg/day) administered for a period of […]
Those who are unable to tolerate doses of GBP less than or equal to 1800 mg/day.
Study Design Randomized, double-blind, placebo-controlled, 2-treatment (placebo and active), age-stratified study in patients aged 18 years or older, who suffer from PHN. The study is comprised of 3 phases: (i) 7-weeks screening including 4-weeks GBP treatment, (ii) 5-weeks randomized treatment, and (iii) 1-week follow-up period.
All patients who meet entry criteria initially enter a 1-week run-in period during which a daily pain diary will be maintained. Thereafter, if the severity of pain meets relevant criteria for inclusion in the study, patients enter a 4-week period during which they will receive GBP treatment. […]

The target of a further test is norepinephrine reuptake (Homo sapiens, UniProt P23975). The following applies: cited from earlier work.
Sequence of norepinephrine reuptake (P23975 whole entry): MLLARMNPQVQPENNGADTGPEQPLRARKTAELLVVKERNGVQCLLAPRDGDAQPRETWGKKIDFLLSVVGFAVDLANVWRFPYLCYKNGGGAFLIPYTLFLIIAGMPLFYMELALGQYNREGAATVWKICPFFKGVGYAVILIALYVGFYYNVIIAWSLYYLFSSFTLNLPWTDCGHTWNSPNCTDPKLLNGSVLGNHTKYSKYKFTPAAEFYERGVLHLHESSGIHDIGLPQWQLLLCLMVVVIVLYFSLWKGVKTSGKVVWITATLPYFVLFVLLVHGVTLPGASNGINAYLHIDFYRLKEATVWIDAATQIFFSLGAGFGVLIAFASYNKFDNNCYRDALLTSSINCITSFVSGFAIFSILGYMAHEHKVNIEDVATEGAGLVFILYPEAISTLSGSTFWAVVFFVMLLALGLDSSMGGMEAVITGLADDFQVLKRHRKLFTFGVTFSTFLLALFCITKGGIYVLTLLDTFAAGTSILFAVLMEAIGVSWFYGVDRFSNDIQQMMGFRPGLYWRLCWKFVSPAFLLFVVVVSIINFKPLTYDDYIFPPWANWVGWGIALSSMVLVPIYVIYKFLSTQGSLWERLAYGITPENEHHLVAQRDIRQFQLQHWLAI
For test [3] the following is noted: in vivo; cited from earlier work. The source holds these as a separate data set.
The conditions of test [4]: patients receiving gabapentin; cited from earlier work.

With `CCOc1ccccc1OC(c1ccccc1)C1CNCCO1` (racemic) [reboxetine, (RR, SS)-2-[α-(2-ethoxyphenoxy)benzyl]morpholine], the anticholinergic binding activity entry in the test with anticholinergic binding was “no anticholinergic binding activity”. The “effect in the 8-OH-DPAT hypothermia test” value in test [1] is “ineffective”. In the test with monoamine oxidase (MAO), the “monoamine oxidase (MAO) inhibitory activity” value was “substantially devoid”.
Consider `CCOc1ccccc1O[C@@H](c1ccccc1)[C@@H]1CNCCO1` [(S,S)-reboxetine], for which the “dopamine reuptake inhibitory activity” value at dopamine reuptake is listed as “no”. The “efficacy in treating pain in patients who do not respond to alpha-2-delta ligands” value in test [2] is listed as “efficacious”.
In the case of `COc1ccc(C(CN(C)C)C2(O)CCCCC2)cc1` (stereo not drawn) [venlafaxine], the “dopamine reuptake inhibitory activity” value at dopamine reuptake was “weak inhibitor”. Besides, the “norepinephrine reuptake inhibitory activity” value on norepinephrine reuptake is “potent inhibitor”.
As to `NCC1(CC(=O)O)CCCCC1` [gabapentin, 1-(aminomethyl)-cyclohexylacetic acid], in test [3], the “efficacy in the treatment of painful diabetic neuropathy” value is reported as “efficacious”. Moreover, in test [4], the “patients noting at least a moderate improvement (score of 1 or 2) on the Patient Global Impression of Change” value is listed as “Approximately 60%”.
